Laboratory results taken from US11492375B2, “Cyclic peptide immunomodulators” (Bristol-Myers Squibb Company, priority 2017, dated 2022).

biological target: PD-1-Ig binding to PD-L1-TVMV-His (PD-L1-His) (Homo sapiens (Human), UniProt Q9NZQ7); assay: PD-1/PD-L1 Homogenous Time-Resolved Fluorescence (HTRF) binding assay; conditions: PD-1-Ig/PD-L1-His binding; numeric value; read-out: HTRF IC50 (μM) or Range
Excerpt: The ability of the macrocyclic peptides of the present disclosure to bind to PD-L1 was investigated using a PD-1/PD-L1 Homogenous Time-Resolved Fluorescence (HTRF) binding assay.
Homogenous Time-Resolved Fluorescence (HTRF) Assays of Binding of Soluble PD-1 to Soluble PD-L1. Soluble PD-1 and soluble PD-L1 refers to proteins with carboxyl-end truncations that remove the transmembrane-spanning regions and are fused to heterologous sequences, specifically the Fc portion of the human immunoglobuling G sequence (Ig) or the hexahistidine epitope tag (His). All binding studies were performed in an HTRF assay buffer consisting of dPBS supplemented with 0.1% (w/v) bovine serum albumin and 0.05% (v/v) Tween-20. For the PD-1-Ig/PD-L1-His binding assay, inhibitors were pre-incubated with PD-L1-His (10 nM final) for 15m in 4 μl of assay buffer, followed by addition of PD-1-Ig (20 nM final) in 1 μl of assay buffer and further incubation for 15 m. PD-L1 fusion proteins from either human, cynomologous macaques, mouse, or other species were used. HTRF detection was achieved using europium crypate-labeled anti-Ig monoclonal antibody (1 nM final) and allophycocyanin (APC) labeled anti-His monoclonal antibody (20 nM final). Antibodies were diluted in HTRF detection buffer and 5 μl was dispensed on top of binding reaction. The reaction was allowed to equilibrate for 30 minutes and signal (665 nm/620 nm ratio) was obtained using an EnVision fluorometer. Additional binding assays were established between PD-1-Ig/PD-L2-His (20 and 5 nM, respectively), CD8O-His/PD-L1-Ig (100 and 10 nM, respectively) and CD80-His/CTLA4-Ig (10 and 5 nM, respectively). Binding/competition studies between biotinylated Compound No. 71 and human PD-L1-His were performed as follows. Macrocyclic peptide inhibitors were pre-incubated with PD-L1-His (10 nM final) for 60 minutes in 4 μl of assay buffer followed by addition of biotinylated Compound No. 71 (0.5 nM final) in 1 μl of assay buffer. Binding was allowed to equilibrate for 30 minutes followed by addition of europium crypated labeled Streptavidin (2.5 pM final) and APC-labeled anti-His (20 nM final) in 5 μl of HTRF buffer. The reaction was allowed to equilibrate for 30 m and signal (665 nm/620 nm ratio) was obtained using an EnVision fluorometer.
Recombinant Proteins. Carboxyl-truncated human PD-1 (amino acids 25-167) with a C-terminal human Ig epitope tag [hPD-1 (25-167)-35-IG] and human PD-L1 (amino acids 18-239) with a C-terminal His epitope tag [hPD-L1(19-239)-tobacco vein mottling virus protease cleavage site (TVMV)-His] were expressed in HEK293T cells and purified sequentially by recombinant Protein A affinity chromatography and size exclusion chromatography. Human PD-L2-His (Sino Biologicals), CD80-His (Sino Biologicals), CTLA4-Ig (RnD Systems) were all obtained through commercial sources.

PD-1-Ig binding to PD-L1-TVMV-His (PD-L1-His), sequence (Q9NZQ7 other isoform, or with tags, fused parts or gaps): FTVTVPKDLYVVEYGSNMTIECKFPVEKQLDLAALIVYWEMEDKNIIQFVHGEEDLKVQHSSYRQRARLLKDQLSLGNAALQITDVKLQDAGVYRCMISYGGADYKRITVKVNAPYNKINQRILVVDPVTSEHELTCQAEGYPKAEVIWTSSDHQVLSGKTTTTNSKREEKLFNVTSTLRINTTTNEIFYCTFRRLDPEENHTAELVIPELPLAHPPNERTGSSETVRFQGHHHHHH

Row | SMILES | IC50
1 | CC(C)C[C@@H]1NC(=O)[C@H](CN)NC(=O)[C@@H]2CCCN2C(=O)[C@H](CC(N)=O)NC(=O)[C@H](C)N(C)C(=O)[C@H](Cc2ccc(O)cc2)NC(=O)CSC[C@H](C(=O)NCC(N)=O)NC(=O)[C@@H](C)NC(=O)[C@H]2CC/C=C\CC[C@@H](C(=O)N2C)N(C)C(=O)[C@H](Cc2c[nH]c3ccccc23)NC(=O)[C@H](CO)NC(=O)[C@@H](Cc2c[nH]c3ccccc23)NC(=O)[C@@H]2C[C@@H](O)CN2C1=O [Example 1103] | 1.5 µM

same assay, conditions: PD-1-Ig/PD-L1-His binding; value given as range class; read-out: HTRF IC50 (μM) or Range

Row | SMILES | IC50
2 | CC(C)C[C@@H]1NC(=O)[C@H](Cc2cnc[nH]2)NC(=O)[C@@H]2CCCN2C(=O)[C@H](CC(N)=O)NC(=O)[C@H](C)N(C)C(=O)[C@H](Cc2ccccc2)NC(=O)CSC[C@@H](C(=O)NCC(N)=O)NC(=O)[C@H](CCCNC(=N)N)NC(=O)[C@@H]2CCCC/C=C/CCCC[C@@H](C(=O)N2C)N(C)C(=O)[C@H](Cc2c[nH]c3ccccc23)NC(=O)[C@H](CO)NC(=O)[C@H](Cc2c[nH]c3ccccc23)NC(=O)CN(C)C1=O [Example 1001] | 0.01 to 0.099 µM
3 | CC(C)C[C@@H]1NC(=O)[C@H](Cc2cnc[nH]2)NC(=O)[C@@H]2CCCN2C(=O)[C@H](CC(N)=O)NC(=O)[C@H](C)N(C)C(=O)[C@H](Cc2ccccc2)NC(=O)CSC[C@@H](C(=O)NCC(N)=O)NC(=O)[C@H](CCCNC(=N)N)NC(=O)[C@@H]2CCCCC/C=C/CCCCC[C@@H](C(=O)N2C)N(C)C(=O)[C@H](Cc2c[nH]c3ccccc23)NC(=O)[C@H](CO)NC(=O)[C@H](Cc2c[nH]c3ccccc23)NC(=O)CN(C)C1=O [Example 1002] | 0.01 to 0.099 µM
4 | CC(C)C[C@@H]1NC(=O)[C@H](Cc2cnc[nH]2)NC(=O)[C@@H]2CCCN2C(=O)[C@H](CC(N)=O)NC(=O)[C@H](C)N(C)C(=O)[C@H](Cc2ccccc2)NC(=O)CSC[C@@H](C(=O)NCC(N)=O)NC(=O)[C@H](CCCNC(=N)N)NC(=O)[C@@H]2CCCC/C=C\CCCC[C@@H](C(=O)N2C)N(C)C(=O)[C@H](Cc2c[nH]c3ccccc23)NC(=O)[C@H](CO)NC(=O)[C@H](Cc2c[nH]c3ccccc23)NC(=O)CN(C)C1=O [Example 1100] | 0.01 to 0.099 µM
5 | CC(C)C[C@@H]1NC(=O)[C@H](Cc2cnc[nH]2)NC(=O)[C@@H]2CCCN2C(=O)[C@H](CC(N)=O)NC(=O)[C@H](C)N(C)C(=O)[C@H](Cc2ccc(O)cc2)NC(=O)CSC[C@@H](C(=O)NCC(N)=O)NC(=O)[C@H](CCCNC(=N)N)NC(=O)[C@@H]2CCC/C=C\CCC[C@@H](C(=O)N2C)N(C)C(=O)[C@H](Cc2c[nH]c3ccccc23)NC(=O)[C@H](CO)NC(=O)[C@H](Cc2c[nH]c3ccccc23)NC(=O)[C@@H]2C[C@@H](O)CN2C1=O [Example 1101] | 0.1 to 2 µM
6 | CC(C)C[C@@H]1NC(=O)[C@H](Cc2cnc[nH]2)NC(=O)[C@@H]2CCCN2C(=O)[C@H](CC(N)=O)NC(=O)[C@H](C)N(C)C(=O)[C@H](Cc2ccc(O)cc2)NC(=O)CSC[C@@H](C(=O)NCC(N)=O)NC(=O)[C@H](CCCNC(=N)N)NC(=O)[C@@H]2CC/C=C\CC[C@@H](C(=O)N2C)N(C)C(=O)[C@H](Cc2c[nH]c3ccccc23)NC(=O)[C@H](CO)NC(=O)[C@H](Cc2c[nH]c3ccccc23)NC(=O)[C@@H]2C[C@@H](O)CN2C1=O [Example 1102] | 0.1 to 2 µM
7 | CC(C)C[C@@H]1NC(=O)[C@H](CN)NC(=O)[C@@H]2CCCN2C(=O)[C@H](CC(N)=O)NC(=O)[C@H](C)N(C)C(=O)[C@H](Cc2ccc(O)cc2)NC(=O)CSC[C@H](C(=O)NCC(N)=O)NC(=O)[C@@H](CCCN)NC(=O)[C@H]2CCC/C=C\CCC[C@@H](C(=O)N2C)N(C)C(=O)[C@H](Cc2c[nH]c3ccccc23)NC(=O)[C@H](CO)NC(=O)[C@@H](Cc2c[nH]c3ccccc23)NC(=O)[C@@H]2C[C@@H](O)CN2C1=O [Example 1104] | 0.01 to 0.099 µM
8 | CC(C)C[C@@H]1NC(=O)[C@H](Cc2cnc[nH]2)NC(=O)[C@@H]2CCCN2C(=O)[C@H](CC(N)=O)NC(=O)[C@@H]2COCCN2C(=O)[C@H](Cc2ccc(O)cc2)NC(=O)CSC[C@H](C(=O)NCC(N)=O)NC(=O)[C@@H](C)NC(=O)C2CCC/C=C\CCC[C@@H](C(=O)N2C)N(C)C(=O)[C@H](Cc2c[nH]c3ccccc23)NC(=O)[C@H](CO)NC(=O)[C@@H](Cc2c[nH]c3ccccc23)NC(=O)[C@@H]2C[C@@H](O)CN2C1=O [Example 1105] | 0.1 to 2 µM
9 | CC(C)C[C@@H]1NC(=O)[C@H](CN)NC(=O)[C@@H]2CCCN2C(=O)[C@H](CC(N)=O)NC(=O)[C@H](C)N(C)C(=O)[C@H](Cc2ccc(O)cc2)NC(=O)CSC[C@H](C(=O)NCC(N)=O)NC(=O)[C@@H](C)NC(=O)[C@H]2CCC/C=C\CCC[C@@H](C(=O)N2C)N(C)C(=O)[C@H](Cc2c[nH]c3ccccc23)NC(=O)[C@H](CO)NC(=O)[C@@H](Cc2c[nH]c3ccccc23)NC(=O)[C@@H]2C[C@@H](O)CN2C1=O [Example 1106] | 0.1 to 2 µM
10 | CC(C)C[C@@H]1NC(=O)[C@H](CN)NC(=O)[C@@H]2CCCN2C(=O)[C@H](CC(N)=O)NC(=O)[C@H](C)N(C)C(=O)[C@H](Cc2ccc(O)cc2)NC(=O)CSC[C@@H](C(N)=O)NC(=O)[C@H](CCCNC(=N)N)NC(=O)[C@@H]2CCCC/C=C\CCCC[C@@H](C(=O)N2C)N(C)C(=O)[C@H](Cc2c[nH]c3ccccc23)NC(=O)[C@H](CO)NC(=O)[C@H](Cc2c[nH]c3ccccc23)NC(=O)[C@@H]2C[C@@H](O)CN2C1=O [Example 1107] | 0.01 to 0.099 µM
11 | C[C@H]1C(=O)N[C@@H](CC(=O)O)C(=O)N2CCC[C@H]2C(=O)N[C@@H](CN)C(=O)N[C@@H](CCC(=O)O)C(=O)N2C[C@H](O)C[C@H]2C(=O)N[C@@H](Cc2c[nH]c3ccccc23)C(=O)N[C@@H](CO)C(=O)N[C@@H](Cc2c[nH]c3ccccc23)C(=O)N(C)[C@H]2CCCC/C=C\CCCC[C@@H](C(=O)N[C@@H](CCC(=O)O)C(=O)N[C@H](C(N)=O)CSCC(=O)N[C@@H](Cc3ccc(O)cc3)C(=O)N1C)N(C)C2=O [Example 1108] | 0.002 to 0.0099 µM
12 | CC(C)C[C@@H]1NC(=O)[C@H](CN)NC(=O)[C@@H]2CCCN2C(=O)[C@H](CC(N)=O)NC(=O)[C@H](C)N(C)C(=O)[C@H](Cc2ccc(O)cc2)NC(=O)CSC[C@H](C(=O)NCC(N)=O)NC(=O)[C@@H](CCCNC(=N)N)NC(=O)[C@@H]2CCCC/C=C\CCCC[C@@H](C(=O)N2C)N(C)C(=O)[C@H](Cc2c[nH]c3ccccc23)NC(=O)[C@H](CO)NC(=O)[C@@H](Cc2c[nH]c3ccccc23)NC(=O)[C@@H]2C[C@@H](O)CN2C1=O [Example 1109] | 0.002 to 0.0099 µM
13 | CC(C)C[C@@H]1NC(=O)[C@H](Cc2c[nH]cn2)NC(=O)[C@@H]2CCCN2C(=O)[C@H](CC(N)=O)NC(=O)[C@@H]2COCCN2C(=O)[C@H](Cc2ccc(O)cc2)NC(=O)CSC[C@H](C(=O)NCC(N)=O)NC(=O)[C@@H](C)NC(=O)[C@@H]2CCC/C=C\CCC[C@@H](C(=O)N2C)N(C)C(=O)[C@H](Cc2c[nH]c3ccccc23)NC(=O)[C@H](CO)NC(=O)[C@@H](Cc2c[nH]c3ccccc23)NC(=O)[C@@H]2C[C@@H](O)CN2C1=O [Example 1110] | 0.01 to 0.099 µM
14 | C[C@H]1C(=O)N[C@@H](CC(=O)O)C(=O)N2CCC[C@H]2C(=O)N[C@@H](CN)C(=O)N[C@@H](CCC(=O)O)C(=O)N2C[C@H](O)C[C@H]2C(=O)N[C@@H](Cc2c[nH]c3ccccc23)C(=O)N[C@@H](CO)C(=O)N[C@@H](Cc2c[nH]c3ccccc23)C(=O)N(C)[C@H]2CCCC/C=C\CCCC[C@@H](C(=O)N[C@@H](CCC(=O)O)C(=O)N[C@H](C(=O)NCC(N)=O)CSCC(=O)N[C@@H](Cc3ccc(O)cc3)C(=O)N1C)N(C)C2=O [Example 1111] | 0.002 to 0.0099 µM
15 | C[C@@H]1NC(=O)[C@@H]2CCCC/C=C\CCCC[C@@H](C(=O)N2C)N(C)C(=O)[C@H](Cc2c[nH]c3ccccc23)NC(=O)[C@H](CO)NC(=O)[C@H](Cc2c[nH]c3ccccc23)NC(=O)[C@@H]2C[C@@H](O)CN2C(=O)[C@H](CCC(N)=O)NC(=O)[C@H](CN)NC(=O)[C@@H]2CCCN2C(=O)[C@H](CC(=O)O)NC(=O)[C@H](C)N(C)C(=O)[C@H](Cc2ccc(O)cc2)NC(=O)CSC[C@@H](C(=O)NCC(N)=O)NC1=O [Example 1112] | 0.002 to 0.0099 µM
